Tests used:
Format in all cases: in vivo
Abutilon theophrasti [1] = experiment: Pre-emergence herbicidal action against ABUTH; details: visual score after 3 weeks vs untreated controls
Summary of the method: (§1)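 Sandy loam pots, seeds covered with soil, then surface-treated with WP or EC formulations at 600–800 l/ha water plus 0.2% wetting agent. Greenhouse, 3 weeks. Percent damage vs untreated controls.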

Alopecurus myosuroides [2] = experiment: Pre-emergence herbicidal action against ALOMY; details: visual score after 3 weeks vs untreated controls
Summary of the method: as §1

Amaranthus retroflexus [3] = experiment: Pre-emergence herbicidal action against AMARE; details: visual score after 3 weeks vs untreated controls
Summary of the method: as §1

Avena fatua [4] = experiment: Pre-emergence herbicidal action against AVEFA; details: visual score after 3 weeks vs untreated controls
Summary of the method: as §1

Cyperus esculentus [5] = experiment: Pre-emergence herbicidal action against CYPES; details: visual score after 3 weeks vs untreated controls
Summary of the method: as §1

Echinochloa crus-galli [6] = experiment: Pre-emergence herbicidal action against ECHCG; details: visual score after 3 weeks vs untreated controls
Summary of the method: as §1

Matricaria inodora [7] = experiment: Pre-emergence herbicidal action against MATIN; details: visual score after 3 weeks vs untreated controls
Summary of the method: as §1

Pharbitis purpurea [8] = experiment: Pre-emergence herbicidal action against PHBPU; details: visual score after 3 weeks vs untreated controls
Summary of the method: as §1

Hordeum murinum [9] = experiment: Pre-emergence herbicidal action against HORMU; details: visual score after 3 weeks vs untreated controls
Summary of the method: as §1

Lolium rigidum [10] = experiment: Pre-emergence herbicidal action against LOLRI
Summary of the method: as §1

Polygonum convolvulus [11] = experiment: Pre-emergence herbicidal action against POLCO
Summary of the method: as §1

Setaria viridis [12] = experiment: Pre-emergence herbicidal action against SETVI
Summary of the method: as §1

Stellaria media [13] = experiment: Pre-emergence herbicidal action against STEME
Summary of the method: as §1

Veronica persica [14] = experiment: Pre-emergence herbicidal action against VERPE
Summary of the method: as §1

Viola tricolor [15] = experiment: Pre-emergence herbicidal action against VIOTR
Summary of the method: as §1

Abutilon theophrasti [16] = experiment: Post-emergence herbicidal action against ABUTH
Summary of the method: (§2)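 Visual % rating (0% = as untreated, 100% = dead) ~3 wk after spraying one-leaf-stage plants grown in sandy loam; WP/EC in water at 600–800 l/ha, 0.2% wetting agent.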

Alopecurus myosuroides [17] = experiment: Post-emergence herbicidal action against ALOMY
Summary of the method: as §2

Amaranthus retroflexus [18] = experiment: Post-emergence herbicidal action against AMARE; details: visual assessment about 3 weeks after treatment
Summary of the method: as §2

Avena fatua [19] = experiment: Post-emergence herbicidal action against AVEFA; details: 80 g/ha, visual assessment about 3 weeks after treatment
Summary of the method: as §2

Cyperus esculentus [20] = experiment: Post-emergence herbicidal action against CYPES; details: 80 g/ha, visual assessment about 3 weeks after treatment
Summary of the method: as §2

Echinochloa crus-galli [21] = experiment: Post-emergence herbicidal action against ECHCG; details: visual assessment about 3 weeks after treatment
Summary of the method: as §2

Matricaria inodora [22] = experiment: Post-emergence herbicidal action against MATIN; details: visual assessment about 3 weeks after treatment
Summary of the method: as §2

Pharbitis purpurea [23] = experiment: Post-emergence herbicidal action against PHBPU; details: visual assessment about 3 weeks after treatment
Summary of the method: as §2

Hordeum murinum [24] = experiment: Post-emergence herbicidal action against HORMU
Summary of the method: as §2

Lolium rigidum [25] = experiment: Post-emergence herbicidal action against LOLRI; details: 80 g/ha
Summary of the method: as §2

Polygonum convolvulus [26] = experiment: Post-emergence herbicidal action against POLCO; details: 80 g/ha, visual assessment about 3 weeks after treatment
Summary of the method: as §2

Setaria viridis [27] = experiment: Post-emergence herbicidal action against SETVI; details: visual assessment about 3 weeks after treatment
Summary of the method: as §2

Stellaria media [28] = experiment: Post-emergence herbicidal action against STEME; details: visual assessment about 3 weeks after treatment
Summary of the method: as §2

Veronica persica [29] = experiment: Post-emergence herbicidal action against VERPE; details: 80 g/ha, visual assessment about 3 weeks after treatment
Summary of the method: as §2

Viola tricolor [30] = experiment: Post-emergence herbicidal action against VIOTR
Summary of the method: as §2

Cn1nnnc1NC(=O)c1ccc(C(F)(F)F)c(C(=O)n2cccn2)c1Cl [Example 1-153]
80%: Pre-emergence action against ALOMY (Alopecurus myosuroides [2]; 80 g/ha) | Pre-emergence action against HORMU (Hordeum murinum [9]; 80 g/ha) | Pre-emergence action against LOLRI (Lolium rigidum [10]; 80 g/ha) | Post-emergence action against ALOMY (Alopecurus myosuroides [17]; 5 g/ha) | Post-emergence action against PHBPU in % (Pharbitis purpurea [23]; 5 g/ha) | Post-emergence action against HORMU in % (Hordeum murinum [24]; 20 g/ha) | Post-emergence action against VERPE in % (Veronica persica [29]) | Post-emergence action against VIOTR in % (Viola tricolor [30]; 5 g/ha)
100%: Pre-emergence action against ABUTH (Abutilon theophrasti [1]; 20 g/ha) | Pre-emergence action against ABUTH (Abutilon theophrasti [1]; 80 g/ha) | Pre-emergence action against ABUTH (Abutilon theophrasti [1]; Dosage column 320 g/ha (heading prints 3200 g/ha)) | Pre-emergence action against ALOMY (Alopecurus myosuroides [2]; 320 g/ha) | Pre-emergence action against AMARE (Amaranthus retroflexus [3]; 20 g/ha) | Pre-emergence action against AMARE (Amaranthus retroflexus [3]; 80 g/ha) | Pre-emergence action against AMARE (Amaranthus retroflexus [3]; 320 g/ha) | Pre-emergence action against AVEFA (Avena fatua [4]; 80 g/ha) | Pre-emergence action against AVEFA (Avena fatua [4]; 320 g/ha) | Pre-emergence action against CYPES (Cyperus esculentus [5]; 20 g/ha) | Pre-emergence action against CYPES (Cyperus esculentus [5]; 80 g/ha) | Pre-emergence action against CYPES (Cyperus esculentus [5]; 320 g/ha) | Pre-emergence action against ECHCG (Echinochloa crus-galli [6]; 20 g/ha) | Pre-emergence action against ECHCG (Echinochloa crus-galli [6]; 80 g/ha) | Pre-emergence action against ECHCG (Echinochloa crus-galli [6]; 320 g/ha) | Pre-emergence action against MATIN (Matricaria inodora [7]; 80 g/ha) | Pre-emergence action against MATIN (Matricaria inodora [7]; 320 g/ha) | Pre-emergence action against HORMU (Hordeum murinum [9]; 320 g/ha) | Pre-emergence action against POLCO (Polygonum convolvulus [11]; 320 g/ha) | Pre-emergence action against SETVI (Setaria viridis [12]; 20 g/ha) | Pre-emergence action against SETVI (Setaria viridis [12]; 80 g/ha) | Pre-emergence action against SETVI (Setaria viridis [12]; 320 g/ha) | Pre-emergence action against STEME (Stellaria media [13]; 320 g/ha) | Pre-emergence action against VERPE (Veronica persica [14]; 320 g/ha) | Pre-emergence action against VIOTR (Viola tricolor [15]; 80 g/ha) | Pre-emergence action against VIOTR (Viola tricolor [15]; 320 g/ha) | Post-emergence action against AMARE in % (Amaranthus retroflexus [18]; 5 g/ha) | Post-emergence action against AMARE in % (Amaranthus retroflexus [18]; 20 g/ha) | Post-emergence action against AMARE in % (Amaranthus retroflexus [18]; 80 g/ha) | Post-emergence action against AVEFA in % (Avena fatua [19]) | Post-emergence action against ECHCG in % (Echinochloa crus-galli [21]; 20 g/ha) | Post-emergence action against ECHCG in % (Echinochloa crus-galli [21]; 80 g/ha) | Post-emergence action against MATIN in % (Matricaria inodora [22]; 80 g/ha) | Post-emergence action against SETVI in % (Setaria viridis [27]; 20 g/ha) | Post-emergence action against SETVI in % (Setaria viridis [27]; 80 g/ha) | Post-emergence action against STEME in % (Stellaria media [28]; 5 g/ha) | Post-emergence action against STEME in % (Stellaria media [28]; 20 g/ha) | Post-emergence action against STEME in % (Stellaria media [28]; 80 g/ha)
90%: Pre-emergence action against MATIN (Matricaria inodora [7]; 20 g/ha) | Pre-emergence action against PHBPU (Pharbitis purpurea [8]; 80 g/ha) | Pre-emergence action against PHBPU (Pharbitis purpurea [8]; 320 g/ha) | Pre-emergence action against LOLRI (Lolium rigidum [10]; 320 g/ha) | Pre-emergence action against POLCO (Polygonum convolvulus [11]; 80 g/ha) | Pre-emergence action against STEME (Stellaria media [13]; 20 g/ha) | Pre-emergence action against STEME (Stellaria media [13]; 80 g/ha) | Pre-emergence action against VERPE (Veronica persica [14]; 80 g/ha) | Post-emergence action against ABUTH (Abutilon theophrasti [16]; 5 g/ha) | Post-emergence action against ABUTH (Abutilon theophrasti [16]; 20 g/ha) | Post-emergence action against ABUTH (Abutilon theophrasti [16]; 80 g/ha) | Post-emergence action against ALOMY (Alopecurus myosuroides [17]; 20 g/ha) | Post-emergence action against ALOMY (Alopecurus myosuroides [17]; 80 g/ha) | Post-emergence action against CYPES in % (Cyperus esculentus [20]) | Post-emergence action against ECHCG in % (Echinochloa crus-galli [21]; 5 g/ha) | Post-emergence action against MATIN in % (Matricaria inodora [22]; 5 g/ha) | Post-emergence action against MATIN in % (Matricaria inodora [22]; 20 g/ha) | Post-emergence action against PHBPU in % (Pharbitis purpurea [23]; 20 g/ha) | Post-emergence action against PHBPU in % (Pharbitis purpurea [23]; 80 g/ha) | Post-emergence action against HORMU in % (Hordeum murinum [24]; 80 g/ha) | Post-emergence action against LOLRI in % (Lolium rigidum [25]) | Post-emergence action against POLCO in % (Polygonum convolvulus [26]) | Post-emergence action against VIOTR in % (Viola tricolor [30]; 20 g/ha) | Post-emergence action against VIOTR in % (Viola tricolor [30]; 80 g/ha)

Reference: patent US12599136B2, “Substituted isophthalic acid diamides and their use as herbicides” (Bayer Aktiengesellschaft, priority 2020, dated 2026)
